Assay results taken from patent US9145415B2, “Nitrogen-containing heterocyclic compound or salt thereof” (FUJIFILM Corporation, priority 2012, dated 2015).
Like-named read-outs stand apart in the source and are kept apart here.

Columns and labels:
[1] = target: T1, human FLT3 protein (FLT3 (WT)) (Homo sapiens, UniProt P36888); test: FLT3 inhibition test (FLT3 enzyme inhibition, time-resolved fluorescence of substrate peptide phosphorylation); type: biochemical; conditions: read-out: FLT3 (WT) enzyme inhibition activity
T1 construct: human FLT3 protein (intracellular region, 564 to 993 aa); GST; purchased Carna Biosciences; host or cells: baculovirus expression system
T1 sequence (P36888 564-993): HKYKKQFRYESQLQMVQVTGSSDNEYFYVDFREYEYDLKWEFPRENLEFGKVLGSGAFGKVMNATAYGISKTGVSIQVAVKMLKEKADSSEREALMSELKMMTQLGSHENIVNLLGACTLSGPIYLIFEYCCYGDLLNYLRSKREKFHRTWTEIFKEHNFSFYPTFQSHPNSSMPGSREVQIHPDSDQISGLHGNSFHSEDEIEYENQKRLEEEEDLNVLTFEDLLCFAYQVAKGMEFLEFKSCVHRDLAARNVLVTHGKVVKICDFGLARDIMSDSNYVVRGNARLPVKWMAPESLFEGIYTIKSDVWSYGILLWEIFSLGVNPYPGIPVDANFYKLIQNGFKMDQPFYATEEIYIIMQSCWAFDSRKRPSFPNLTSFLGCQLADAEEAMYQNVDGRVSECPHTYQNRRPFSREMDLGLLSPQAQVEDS
Summary of the method: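 Wild-type human FLT3 (1.2 μg) pre-incubated with compound 15 min at 25° C in 100 mM HEPES pH 7.5, 10 mM MgCl2, 25 mM NaCl, 1 mM DTT. Reaction started with substrate peptide and ATP (final 50 μM), run 30 min at 25° C; phosphorylation read by time-resolved fluorescence.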

MV4-11 cells = test: Leukemia cell proliferation inhibition test (ATPlite), MV4-11; type: cell-based; conditions: Homo sapiens, read-out: MV4-11 cell proliferation inhibition effect
Summary of the method: (§1)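 Luminescent ATP read-out (firefly luciferase) used as a total cell count after 72 h compound exposure at 37° C, 5% CO2. Cells: 10,000/well in RPMI + 10% FBS. GI50 = 50% inhibition relative to 0.1% DMSO, from a sigmoid dose-response fit; duplicates.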

Molm-13 cells = test: Leukemia cell proliferation inhibition test (ATPlite), Molm-13; type: cell-based; conditions: Homo sapiens, read-out: MOLM13 cell proliferation inhibition effect
Summary of the method: as §1

[2] = GST-fused human FLT3 (564 to 993 aa), ATP 50 μM
[3] = MV4-11, 72 h, MV4-11, 72 hours culture, ATPlite, GI50 per method
[4] = MOLM-13, 72 h, Molm-13, 72 hours culture, ATPlite, GI50 per method

IC50 ([1]; FLT3 (WT)) [nM]	IC50 (MV4-11 cells; MV4-11, MV4-11 cell) [nM]	IC50 (Molm-13 cells; MOLM-13, MOLM13 cell) [nM]	IC50 [1, 2] [nM]	IC50 (MV4-11 cells; [3]) [nM]	IC50 (Molm-13 cells; [4]) [nM]	SMILES
< 10	< 10	< 10				COCCNc1nc(Nc2cccc(C#N)c2)ncc1C#C[C@@H]1CCC[C@H](NC(=O)[C@H](C)N(C)C(=O)/C=C/CN(C)C)C1 [Compound 22-38]
< 10	10 to 100	10 to 100				CCCNc1nc(Nc2ccc3sc(C)nc3c2)ncc1C#CCCCNC(=O)[C@H](C)N(C)C(=O)/C=C/CN(C)C [Compound 22-7]
			10 to 100	100 to 1000	100 to 1000	CCCNc1nc(Nc2cccc(F)c2)ncc1-c1nc2ccc(NC(=O)[C@H](C)N(C)C(=O)/C=C/CN(C)C)cc2o1 [Compound 6-23, (S,E)-4-(dimethylamino)-N-(1-((2-(2-((3-fluorophenyl)amino)-4-(propylamino)pyrimidin-5-yl)benzo[d]oxazol-6-yl)amino)-1-oxopropan-2-yl)-N-methyl-2-butenamide]
			< 10	< 10	< 10	CCCNc1nc(Nc2ccc3cnccc3c2)ncc1C(=O)Nc1cccc(NC(=O)[C@H](C)N(C)C(=O)/C=C/CN(C)C)c1 [Compound 6-9, (S,E)-N-(3-(2-(4-(Dimethylamino)-N-methyl-2-butenamido)propanamido)phenyl)-2-(isoquinolin-6-ylamino)-4-(propylamino)pyrimidine-5-carboxamide]
			< 10	< 10	10 to 100	CCCNc1nc(Nc2ccc(C#N)cc2)ncc1C#CCCCNC(=O)[C@H]1CCCN1C(=O)/C=C/CN(C)C [Compound 7-36]
			< 10	10 to 100	10 to 100	CCCNc1nc(Nc2ccc(C(N)=O)cc2)ncc1C#Cc1ccc2nc(CNC(=O)/C=C/CN(C)C)[nH]c2c1 [Compound 8-9]
			< 10	< 10	10 to 100	CCCNc1nc(Nc2cccc(Cl)c2)ncc1C#CCCCNC(=O)[C@H](C)N(C)C(=O)/C=C/CN(C)C [Compound 12-2, (S,E)-N-(1-((5-(2-((3-chlorophenyl)amino)-4-(propylamino)pyrimidin-5-yl)-4-pentyn-1-yl)amino)-1-oxopropan-2-yl)-4-(dimethylamino)-N-methyl-2-butenamide]
			10 to 100	10 to 100	100 to 1000	CCCNc1nc(Nc2ccc(OC(F)(F)F)cc2)ncc1C#CCCCNC(=O)[C@H](C)N(C)C(=O)/C=C/CN(C)C [Compound 12-6]
< 10	< 10	< 10				CCCNc1nc(Nc2ccc3c(cnn3CCOC)c2)ncc1C#CCCCNC(=O)[C@H](C)N(C)C(=O)/C=C/CN(C)C [Compound 22-10]
			< 10	10 to 100	10 to 100	C[C@@H](C(=O)NCCCC#Cc1cnc(Nc2ccc(F)nc2)nc1N1CCCC1)N(C)C(=O)/C=C/CN(C)C [Compound 11-8]
			10 to 100	> 1000	> 1000	CCCNc1nc(Nc2ccc(C#N)cc2)ncc1/C=C\CNC(=O)CCNC(=O)/C=C/CN(C)C [Compound 7-95]
			< 10	< 10	< 10	C[C@@H](C(=O)NCCCC#Cc1cnc(Nc2ccc3cnn(C)c3c2)nc1NC1CC1)N(C)C(=O)/C=C/CN(C)C [Compound 10-58]
< 10	< 10	< 10				CCCNc1nc(Nc2ccc3nccnc3c2)ncc1C#CCCCNC(=O)[C@H](C)N(C)C(=O)/C=C/CN(C)C [Compound 22-4]
			< 10	< 10	< 10	COCCCNc1nc(Nc2ccc(F)cc2)ncc1C#CCCCNC(=O)CN(C)C(=O)/C=C/CN(C)C [Compound 10-27]
			< 10	100 to 1000	100 to 1000	CCCNc1nc(NC(=O)Nc2ccncc2)ncc1C(=O)NCCCNC(=O)CN(C)C(=O)/C=C/CN(C)C [Compound 6-13]
			< 10	< 10	< 10	CCCNc1nc(Nc2ccnc(F)c2)ncc1C#CCCCNC(=O)[C@H](C)N(C)C(=O)/C=C/CN(C)C [Compound 9-13, (S,E)-4-(Dimethylamino)-N-(1-((5-(2-((2-fluoropyridin-4-yl)amino)-4-(propylamino)pyrimidin-5-yl)-4-pentyn-1-yl)amino)-1-oxopropan-2-yl)-N-methyl-2-butenamide]
			< 10	10 to 100	10 to 100	CCCNc1nc(Nc2cnc(NC)c(F)c2)ncc1C#CCCCNC(=O)[C@H](C)N(C)C(=O)/C=C/CN(C)C [Compound 21-14]
< 10	< 10	< 10				COCCNc1nc(Nc2ccc(C#N)cc2)ncc1C#C[C@@H]1CCC[C@H](NC(=O)[C@H](C)N(C)C(=O)/C=C/CN(C)C)C1 [Compound 22-39]
			< 10	< 10	< 10	C[C@@H](C(=O)NCCCC#Cc1cnc(Nc2ccnc(F)c2)nc1NC1CC1)N(C)C(=O)/C=C/CN(C)C [Compound 9-15, (S,E)-N-(1-((5-(4-(Cyclopropylamino)-2-((2-fluoropyridin-4-yl)amino)pyrimidin-5-yl)-4-pentyn-1-yl)amino)-1-oxopropan-2-yl)-4-(dimethylamino)-N-methyl-2-butenamide]
< 10	< 10	< 10				CNc1nc(Nc2ccc(OC)c(F)c2)ncc1C#C[C@@H]1CCC[C@H](NC(=O)[C@H](C)N(C)C(=O)/C=C/CN(C)C)C1 [Compound 21-32, (E)-4-(Dimethylamino)-N—((S)-1-(((1S,3R)-3-((2-((3-fluoro-4-methoxyphenyl)amino)-4-(methylamino)pyrimidin-5-yl)ethynyl)cyclohexyl)amino)-1-oxopropan-2-yl)-N-methyl-2-butenamide]
< 10	< 10	< 10				CCCNc1nc(Nc2ccc3c(OC)n[nH]c3c2)ncc1C#CCCCNC(=O)[C@H](C)N(C)C(=O)/C=C/CN(C)C [Compound 22-65]
			< 10	10 to 100	10 to 100	CCCNc1nc(Nc2ccc(C#N)cc2)ncc1C#CCCCNC(=O)[C@H]1CCCCN1C(=O)/C=C/CN(C)C [Compound 7-38]
			< 10	10 to 100	10 to 100	CCCNc1nc(Nc2ccc(C(N)=O)cc2)ncc1C#CCCCNC1(CNC(=O)/C=C/CN(C)C)CCOCC1 [Compound 8-12]
			10 to 100	100 to 1000	100 to 1000	C=CC(=O)Nc1cccc(CNC(=O)c2cnc(NCCc3ccncc3)nc2NCCC)c1 [Compound 2-26]
			< 10	< 10	< 10	CC(C)CN(C)c1nc(Nc2ccc(C#N)cc2)ncc1C#CCCCNC(=O)[C@H](C)N(C)C(=O)/C=C/CN(C)C [Compound 10-15]
< 10	10 to 100	10 to 100				CCCNc1nc(Nc2cnc3ccccc3c2)ncc1C#CCCCNC(=O)[C@H](C)N(C)C(=O)/C=C/CN(C)C [Compound 22-3]
			< 10	< 10	< 10	CCCNc1nc(Nc2ccc(C(N)=O)cc2)ncc1C#CCCCNC(=O)[C@H](C)N(C)C(=O)/C=C/CN(C)C [Compound 7-4, (S,E)-4-((5-(5-(2-(4-(Dimethylamino)-N-methyl-2-butenamido)propaneamido)-1-pentyn-1-yl)-4-(propylamino)pyrimidin-2-yl)amino)benzamide]
			10 to 100	10 to 100	10 to 100	CCCNc1nc(Nc2cnc(N3CCOCC3)c(F)c2)ncc1C#CCCCNC(=O)[C@H](C)N(C)C(=O)/C=C/CN(C)C [Compound 21-8]
			< 10	10 to 100	10 to 100	C=CC(=O)NCC(=O)NC(CC)CCNC(=O)c1cnc(NCCc2ccncc2)nc1NCCC (stereo not drawn) [Compound 1-6]
			< 10	< 10	< 10	CCCNc1nc(Nc2cccc(F)c2)ncc1C#C[C@@H]1CCC[C@H](NC(=O)[C@H](C)N(C)C(=O)/C=C/CN(C)C)C1 [Compound 13-1, (E)-4-(dimethylamino)-N—((S)-1-(((1S,3R)-3-((2-((3-fluorophenyl)amino)-4-(propylamino)pyrimidin-5-yl)ethynyl)cyclohexyl)amino)-1-oxopropan-2-yl)-N-methyl-2-butenamide]
